Measured values published in patent publication US11517019B2, “Microbicidal system” (priority 2020, dated 2022).
“Also recorded” adds a separate entry of the source. Where two headings read alike, the source gives them in different places.

Experiments:
[1] = ambient temperature; third-party reports; cited from earlier work
Lp1 = format: cell-based, Legionella pneumophila; details: ~9×10^6 CFU/mL
[2] = tested on: gram-positive and gram-negative bacteria; details: cited from earlier work
[3] = Dissolution of CX powder in 140° F. municipal water
[4] = 50 mg CX powder in 1 liter 140° F. (60° C.) municipal water

In the case of `[H]/N=C(\N/C(=N/[H])NCCCCCCNC(=N)NC(=N)Nc1ccc(Cl)cc1)Nc1ccc(Cl)cc1` [CX, N,N″″1,6-Hexanediylbis[N-(4-chlorophenyl) (imidodicarbonimidic diamide)]], the solubility in water [1] is given as “ca. 80 mg/100 mL”, the cell count reduction (Lp1; 4.5 g solid CX in 800 mL, first 30 seconds) is given as ~0.3 log and the cell count reduction (Lp1; 12 g solid CX in 800 mL, 2-minute reaction period) is given as ~4.8 log. The “time of uptake into bacterial cells” value ([2]; aqueously dissolved form) was ≤ 20 s, the persistence of activity ([2]; bound to proteins on skin, mucosa, mouth tissue and teeth) was ≥ 48 h and the “time to kill virtually all gram-positive and gram-negative bacteria” value ([2]; in vitro) was ≤ 30 s. The “saturation level of CX approached” value [3, 4] was ~1 mg/L, the “time to approach saturation level” value [3, 4] was ≤ 10 s and the “portion of the powder dissolved” value ([3]; 50 mg in 1 liter 140° F. water, up to 20 minutes of exposure) was “under 2 weight percent”. The “chloroaniline (CA) isomers detectable in the water” value ([3]; CX in 140° F. water) was “no isomer of CA was detectable; also recorded: No chloroani line impurities were detectable”.
